# Laboratory results as given in publication PMC12750888, “Design, synthesis, and anti-Toxoplasma gondii evaluation of β-carboline derivatives” (Parasites & Vectors, 2025).
# Assays:
# [1] = Cell viability assay (CCK-8) on Vero cells; format: cell-based, African green monkey; conditions: African green monkey, CCK-8, read-out: half-maximal cytotoxic concentration (CC50) against host cells
# Procedure: (§1) African green monkey kidney (Vero) cells were cultured in Dulbecco’s modified Eagle’s medium (DMEM) supplemented with 100 U/mL penicillin, 100 μg/mL streptomycin, 1% nonessential amino acids (NEAAs), 1% GlutaMAX and 10% fetal bovine serum (FBS) at 37 °C in an atmosphere of 5% CO2. […] DMEM without a drug was used as a control. After 24 h of treatment, Cell Counting Kit-8 (CCK-8, CA1210, Solarbio) was used to determine cell viability at 450 nm via a Multiskan GO instrument.
# Vero cells = test: Cell viability assay (CCK-8) on Vero cells; format: cell-based, African green monkey; conditions: 24 h; for Cytotoxicity: CCK-8, tested up to 30 µM; for inhibition at 30 µM: Chlorocebus sabaeus, CCK-8, read-out: Inhibition rate of Vero cell at 30 μM
# Procedure: as §1
# T. gondii RH tachyzoites = test: Screening for anti-T. gondii activity in vitro (plaque and qPCR assays); format: cell-based, Toxoplasma gondii; conditions: 30 μM screening
# Procedure: The anti-T. gondii activity of compounds NBZ001‒037 was examined via RT-PCR. Confluent Vero cells in 6-well plates were infected with 2 × 10^5 T. gondii RH tachyzoites per well, incubated for 6 h, and then washed twice with PBS to remove extracellular tachyzoites. The cell monolayers were incubated with DMEM (1% FBS) containing various concentrations of NBZ001‒037 for 24 h. Total genomic DNA from each sample was isolated with the DNAiso reagent (Takara), and the levels of the 529-bp repeat element of T. gondii were measured by qPCR. A plaque assay was used to evaluate the activity of the compounds. The detailed experimental procedures were described in previous studies.
# [2] = system: T. gondii RH strain tachyzoites; test: In vitro anti-proliferation assay (qPCR of 529-bp repeat); format: cell-based, Toxoplasma gondii; conditions: for IC50: Toxoplasma gondii, RH strain in Vero cells, 24 h treatment, qPCR, read-out: IC50, inhibition of T. gondii proliferation
# Procedure: The antiproliferative effects of NBZ023 and NBZ035 on T. gondii were determined via qPCR, which was performed by using a QuantStudio 3 Flex real-time PCR system (Life Technologies). Cells were infected with tachyzoites (2 × 10^5 per well) for 6 h, then treated with NBZ023, NBZ035 (0.24‒30 μM) or pyrimethamine (0.4 μM) for 24 h, and washed twice with PBS. Infected or uninfected cells that were cultured with DMEM (1% FBS) were used as the parasite or the host cell control group, respectively. Total genomic DNA from the cell samples was isolated with the DNAiso reagent (Takara), and the levels of the 529-bp repeat sequence of T. gondii were measured via qPCR as before.
# [3] = system: T. gondii RH strain tachyzoites; test: In vitro anti-invasion assay (qPCR; RH-GFP fluorescence microscopy); format: cell-based, Toxoplasma gondii; conditions: for IC50: Toxoplasma gondii, RH strain, Vero cells, 2 h after infection, qPCR, read-out: IC50, inhibition of T. gondii invasion; for number of parasitophorous vacuoles (PVs) invaded by RH-GFP tachyzoites: fluorescence microscopy, compared with control and positive control groups
# Procedure: Vero cells were seeded onto 6-well plates and cultured with DMEM supplemented with 10% FBS to obtain cell monolayers. The medium was replaced with fresh DMEM (1% FBS) containing NBZ023 or NBZ035 (0.24–30 μM), pyrimethamine (0.4 μM) or no drugs (as a control), and tachyzoites (2 × 10^6 per well) were then inoculated into the confluent Vero cell monolayers. At 2 h after infection, the cell monolayers were washed twice with PBS to remove extracellular tachyzoites and then total genomic DNA from the cell samples was isolated with the DNAiso reagent (Takara). The anti-invasion capabilities of NBZ023 and NBZ035 were determined by qPCR. The T. gondii RH strain with green fluorescence was seeded as described above. After infection, the cells were incubated for 36 h to fully observe the infection status of the parasites via fluorescence microscopy.
# T. gondii PRU strain = test: In vitro activity against PRU strain tachyzoites (PV counts, plaques); format: cell-based, Toxoplasma gondii; conditions: NBZ023 2.85 or 30 μM, NBZ035 1.6 or 30 μM; 24, 48, 72 h
# Procedure: Vero cells were infected for 8 h with extracellular type II PRU strain tachyzoites (1.5 × 10^5), which were isolated from a mouse brain, and then the medium containing compounds or 0.1% DMSO (as a control) was added. After 24, 48, and 72 h of incubation, the numbers of PVs were assessed via […] under a 40 × objective lens, and at least 20 random fields per well were counted.
# [4] = system: PRU strain bradyzoite cysts; test: In vitro PRU bradyzoite cyst formation (DBA staining); format: cell-based, Toxoplasma gondii; conditions: PRU cysts in Vero cells, 48 h; NBZ023 2.85 or 30 μM, NBZ035 1.6 or 30 μM
# Procedure: The conditions for inducing the formation of cysts in vitro by the type II PRU strain were described in a previously published study. After the induction of cyst formation, the alkaline medium was removed and replaced with a medium containing NBZ023, NBZ035, or 0.1% DMSO as the control. After 48 h, the DMEM was removed, and the PRU strain bradyzoite cysts were stained with Dolichos biflorus agglutinin (DBA) to assess the treatment effects.The stained cysts were observed using light microscopy under a 40 × objective lens, with at least 3 random fields per well counted.
# [5] = system: T. gondii Type I tachyzoites; test: In vivo efficacy against acute T. gondii infection in mice (tissue parasite burden by qPCR); set-up: species or system BALB/c mice; conditions: acute RH infection, once daily for 7 days, compared with parasite control, NBZ compounds 10 mg/kg BW intraperitoneally, positive control orally
# Procedure: Female BALB/c mice (18-20 g, 6-8 weeks old) were divided into 4 groups consisting of 6 mice each, and each mouse was injected intraperitoneally with 2 × 10^3 Type I tachyzoites. Four hours after inoculation, the treatments were administered once per day for 7 consecutive days. NBZ023 and NBZ035 were dissolved in isotonic saline containing 5% ethanol and 5% Cremophor EL to a concentration of 1 mg/mL for in vivo experiments. Sulfadiazine (10 mg/mL, Sigma, USA), pyrimethamine (5 mg/mL, Sigma, USA), and folinic acid (1.5 mg/mL, Sigma, USA) were suspended in isotonic saline containing 1% CMC-Na and used as positive drugs in in vivo experiments. […] After the mice were euthanized on the eighth day, the brains, livers, and spleens were collected. DNA was isolated with a DNA purification kit ([…], Omega Bio-Tek, USA). The in vivo efficacy of the compounds against T. gondii was evaluated via quantitative real-time PCR with DNA from the brain, liver, and spleen. The numbers of parasites in the tissue samples were determined using standard curves constructed using known numbers of tachyzoites, as previously described.
# T. gondii tachyzoites = test: Ultrastructural analysis by transmission electron microscopy; format: cell-based, Toxoplasma gondii; conditions: NBZ023 2.85 μM, NBZ035 1.6 μM
# Procedure: The effects of the incubation with the drugs on the ultrastructure of T. gondii tachyzoites were observed via transmission electron microscopy (TEM). For TEM analysis, Vero cells were grown to confluence in T25 flasks and infected with 2 × 10^6 T. gondii tachyzoites for 8 h. After NBZ023 (2.85 μM) or NBZ035 (1.6 μM) was added, the cells were cultured for 8 or 24 h, then digested with TrypLE Express for 2 min, and washed twice with PBS. The detailed experimental procedures were described in a previous study.
Compound,CC50 at 24 h [1] [µM],Cytotoxicity (Vero cells) [µM],inhibition at 30 µM (Vero cells) [%],increase in potency compared with nonaromatic heterocycles (NBZ016–018) (T. gondii RH tachyzoites),selectivity index (SI) ([2]; CC50 host cells / IC50 proliferation),IC50 [2] [µM],IC50 [3] [µM],number of parasitophorous vacuoles (PVs) invaded by RH-GFP tachyzoites [3],"proliferation ability of the T. gondii PRU strain (parasites per PV, number of PVs) (T. gondii PRU strain)",inhibition of the formation of T. gondii cysts compared with control [4],reduction of mean T. gondii burden in the liver [5] [%],reduction of mean numbers of T. gondii parasites in the brain [5] [%],reduction of mean numbers of T. gondii parasites in the spleen [5] [%],ultrastructural change of T. gondii tachyzoites (TEM) (T. gondii tachyzoites; 24 h of treatment),ultrastructural change of T. gondii tachyzoites (TEM) (T. gondii tachyzoites; incubation 8 h)
O=C(Nc1ccccc1)c1ccc2[nH]c3c(C(=O)c4cccc(Br)c4)nccc3c2c1 [NBZ023],883,> 30.00,4.56,2- to 3 fold,309.8,2.85,4.72,significantly reduced,significantly (P ≤ 0.05) inhibited,twofold,56.42,70.72,68.90,"the parasite ruptured, and severe cavitation occurred",cracks in the somatic cytoplasm of the parasite
O=C(Nc1ccccc1)c1ccc2[nH]c3c4[n+](ccc3c2c1)-c1ccccc1C4=O [NBZ035],80.6,> 30.00,3.27,,,1.6,1.13,significantly reduced,significantly (P ≤ 0.05) inhibited,twofold,88.52,93.21,89.40,"the parasite ruptured, and severe cavitation occurred",cracks in the somatic cytoplasm of the parasite
